Source: patent publication US8859557B2, “Substituted oxindole derivatives and their use as vasopressin receptor ligands” (Abbott GmbH & Co. KG, priority 2006, dated 2014)

Assays:
[1] = molecular target: T1, recombinant human oxytocin receptors (Homo sapiens, UniProt P30559); test: Oxytocin receptor binding assay; settings: selectivity for V1b over oxytocin receptor, quotient of Ki values
T1 construct: expressed in transfected cells; host or cells: HEK-293, transient expression; lysed and homogenized cells
T1 sequence (P30559 1-389): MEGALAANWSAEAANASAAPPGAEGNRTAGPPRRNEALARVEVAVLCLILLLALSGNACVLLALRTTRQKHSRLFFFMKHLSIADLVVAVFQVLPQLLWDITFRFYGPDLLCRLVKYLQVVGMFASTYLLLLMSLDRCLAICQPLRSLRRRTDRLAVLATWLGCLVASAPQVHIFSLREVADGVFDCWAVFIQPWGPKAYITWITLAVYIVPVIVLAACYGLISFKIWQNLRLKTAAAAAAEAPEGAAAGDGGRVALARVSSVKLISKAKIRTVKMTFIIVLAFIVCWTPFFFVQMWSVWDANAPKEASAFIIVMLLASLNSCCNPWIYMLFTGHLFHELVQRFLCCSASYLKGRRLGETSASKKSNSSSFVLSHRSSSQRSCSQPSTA
Description: Oxytocin Receptor Binding Assay
Confluent HEK-293 cells with transiently expressing recombinant human oxytocin receptors were centrifuged at 750×g and at room temperature for 5 minutes. The residue was taken up in ice-cold lysis buffer (50 mM Tris-HCl, 10% glycerol, pH 7.4 and Roche Complete Protease Inhibitor) and subjected to an osmotic shock at 4° C. for 20 minutes. The lyzed cells were then centrifuged at 750×g and at 4° C. for 20 minutes, the residue was taken up in incubation buffer, and aliquots of 10^7 cells/ml were prepared. The aliquots were frozen at −80° C. until used.
On the day of the experiment, the cells were thawed, diluted with incubation buffer and homogenized using a Multipette Combitip (Eppendorf, Hamburg). […] The nonspecific binding was determined with 10^−6 M oxytocin (Bachem AG, H2510). Determinations in triplicate were set up. Bound and free radioligand were separated by filtration under vacuum with Whatman GF/B glass fibre filters using a Skatron cell harvester 7000. The bound radioactivity was determined by liquid scintillation measurement in a Tricarb beta counter, model 2000 or 2200CA (Packard).

[2] = molecular target: human vasopressin V1a receptor (Homo sapiens, UniProt P37288); test: Vasopressin V1a receptor binding assay; settings: selectivity for V1b over V1a, quotient of Ki values
Chain of human vasopressin V1a receptor (P37288 whole entry): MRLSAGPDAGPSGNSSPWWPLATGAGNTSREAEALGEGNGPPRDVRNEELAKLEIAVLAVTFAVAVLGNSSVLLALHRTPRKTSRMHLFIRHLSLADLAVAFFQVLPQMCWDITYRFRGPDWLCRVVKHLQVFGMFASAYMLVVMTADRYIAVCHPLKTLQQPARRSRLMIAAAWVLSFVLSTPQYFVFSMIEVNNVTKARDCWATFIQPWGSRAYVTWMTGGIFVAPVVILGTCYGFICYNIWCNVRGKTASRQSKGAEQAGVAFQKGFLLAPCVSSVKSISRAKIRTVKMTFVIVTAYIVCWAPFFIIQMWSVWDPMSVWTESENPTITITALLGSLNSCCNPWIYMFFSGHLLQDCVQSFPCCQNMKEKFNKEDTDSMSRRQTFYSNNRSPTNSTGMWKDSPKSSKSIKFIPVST

[3] = molecular target: T2, human vasopressin V1b receptor (Homo sapiens, UniProt P47901); test: Vasopressin V1b receptor binding assay; settings: displacement of 3H-AVP, membranes of CHO-K1 cells with human V1b receptor
T2 construct: expressed in transfected cells; host or cells: CHO-K1 (cell line hV1b-3H2_CHO), membrane preparation
T2 sequence (P47901 1-424): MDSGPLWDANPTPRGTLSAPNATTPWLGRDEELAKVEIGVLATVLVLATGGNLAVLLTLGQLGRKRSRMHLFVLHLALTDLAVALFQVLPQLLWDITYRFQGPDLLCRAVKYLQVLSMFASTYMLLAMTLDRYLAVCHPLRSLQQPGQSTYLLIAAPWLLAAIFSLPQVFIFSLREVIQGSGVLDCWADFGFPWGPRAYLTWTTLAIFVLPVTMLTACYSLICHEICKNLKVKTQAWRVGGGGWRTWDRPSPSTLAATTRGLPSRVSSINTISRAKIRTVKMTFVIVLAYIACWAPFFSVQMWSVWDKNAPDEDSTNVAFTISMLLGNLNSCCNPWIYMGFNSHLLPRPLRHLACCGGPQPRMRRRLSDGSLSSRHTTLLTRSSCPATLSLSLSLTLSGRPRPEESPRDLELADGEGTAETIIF
Description: Methods for Determining the Biological Activity Vasopressin V1b Receptor Binding Assay: Substances:
This series of DMSO predilutions was diluted 1:10 with assay buffer. The substance concentration was again diluted 1:5 in the assay mixture (2% DMSO in the mixture).
All determinations were carried out as triplicate determinations.

[4] = Determination of the microsomal half-life / microsomal clearance (human); format: in vitro ADME; settings: pH 7.4; human liver microsomes, 0.5 μM test substance, 0.25 mg microsomal protein/ml; read-out: Human Mikrosomal Clearance
Description: The metabolic stability of a compound can be determined, for example, by incubating a solution of this compound with liver microsomes from particular species (for example rat, dog or human) and determining the half-life of the compound under these conditions (RS Obach, Curr Opin Drug Discov Devel. 2001, 4, 36-44). It is possible to conclude from an observed larger half-life that the metabolic stability of the compound is improved. The stability in the presence of human liver microsomes is of particular interest since it makes it possible to predict the metabolic degradation of the compound in the human liver. Compounds with increased metabolic stability (determined in the liver microsome test) are therefore probably also degraded more slowly in the liver. The slower metabolic degradation in the liver can lead to higher and/or longer-lasting concentrations (effective levels) of the compound in the body, so that the elimination half-life of the compounds according to the invention is increased. Increased and/or longer-lasting effective levels may lead to a better efficacy of the compound in the treatment or prophylaxis of various vasopressin-dependent diseases. An improved metabolic stability may additionally lead to an increased bioavailability after oral administration, because the compound is subjected, after being absorbed in the intestine, to less metabolic degradation in the liver (so-called first pass effect). An increased oral bioavailability may, because the concentration (effective level) of the compound is increased, lead to a better efficacy of the compound after oral administration.
Determination of the Microsomal Half-Life:
The metabolic stability of the compounds of the invention was determined in the following assay.
The test substances are incubated in a concentration of 0.5 μM as follows:
0.5 μM test substance is preincubated together with liver microsomes of various species (rat, human or other species) (0.25 mg of microsomal protein/ml) in 0.05M potassium phosphate buffer pH 7.4 in microtitre plates at 37° C. for 5 min. The reaction is started by adding NADPH (1 mg/ml). 50 μl aliquots are taken after 0, 5, 10, 15, 20 and 30 min, and the reaction is stopped immediately with the same volume of acetonitrile and cooled down. The samples are frozen until analyzed. Using MSMS, the remaining concentration of undegraded test substance is determined. From the […] of the test substance signal/time unit curve, the half-life (T½) is determined, where the half-life of the test substance can be calculated, assuming first order kinetics, from the decrease in the concentration of the compound with time. The microsomal clearance (mCl) is calculated as mCl=In2/T½/(content of microsomal protein in mg/ml)×1000 [ml/min/mg] (modified according to the literature references: Di, The Society for Biomoleculaur Screening, 2003, 453-462; Obach, DMD, 1999 vol 27. N 11, 1350-1359).

Structure (SMILES) | Ki(h-OT)/Ki(h-V1b) [1] | Ki(h-V1a)/Ki(h-V1b) [2] | Ki [3] [µM] | microsomal CLint at 0.5 μM [4] [µL/min/mg]
CCOc1ncccc1C1(NC(=O)N2CCC(N3CCN(C)CC3)CC2)C(=O)N(S(=O)(=O)c2ccc(OC)cc2OC)c2ccc(C#N)cc21 (single isomer, unassigned) [Example 31B, (−)-N-[5-Cyano-1-[(2,4-dimethoxyphenyl)sulphonyl]-3-(2-ethoxypyridin-3-yl)-2-oxo-2,3-dihydro-1H-indol-3-yl]-4-(4-methylpiperazin-1-yl)piperidine-1-carboxamide] | +++ (>50) | +++ (>100) | < 0.01 | < 60
CCOc1ncccc1C1(NC(=O)N2CCC(N3CCNCC3)CC2)C(=O)N(S(=O)(=O)c2ccc(OC)cc2OC)c2ccc(C#N)cc21 (racemic) [Example 55, N-[5-Cyano-1-[(2,4-dimethoxyphenyl)sulphonyl]-3-(2-ethoxypyridin-3-yl)-2-oxo-2,3-dihydro-1H-indol-3-yl]-4-piperazin-1-ylpiperidine-1-carboxamide] | ++ (>25-50) | +++ (>100) | < 0.01 | 60 to 120
CCOc1ncccc1C1(NC(=O)N2CCN(C3CCN(C)CC3)CC2)C(=O)N(S(=O)(=O)c2ccc(OC)cc2OC)c2ccc(C#N)cc21 (racemic) [Example 1, N-[5-Cyano-1-[(2,4-dimethoxyphenyl)sulphonyl]-3-(2-ethoxypyridin-3-yl)-2-oxo-2,3-dihydro-1H-indol-3-yl]-4-(1-methylpiperidin-4-yl)piperazine-1-carboxamide] | +++ (>50) | +++ (>100) | < 0.01 | < 60
CCOc1ncccc1C1(NC(=O)N2CCC(N3CCN(CC)CC3)CC2)C(=O)N(S(=O)(=O)c2ccc(OC)cc2OC)c2ccc(C#N)cc21 (single isomer, unassigned) [Example 37B, (−)-N-[5-Cyano-1-[(2,4-dimethoxyphenyl)sulphonyl]-3-(2-ethoxypyridin-3-yl)-2-oxo-2,3-dihydro-1H-indol-3-yl]-4-(4-ethylpiperazin-1-yl)piperidine-1-carboxamide] | +++ (>50) | +++ (>100) | < 0.01 | < 60
CCOc1ncccc1C1(NC(=O)N2CCN(C3CCN(C)CC3)CC2)C(=O)N(S(=O)(=O)c2ccccc2)c2ccc(C#N)cc21 (racemic) [Example 4, N-[5-Cyano-3-(2-ethoxypyridin-3-yl)-2-oxo-1-(phenylsulphonyl)-2,3-dihydro-1H-indol-3-yl]-4-(1-methylpiperidin-4-yl)piperazine-1-carboxamide] | ++ (>25-50) | ++ (>50-100) | 0.01 to 0.05 | < 60
CCOc1ncccc1C1(NC(=O)N2CCC(C3CCNCC3)CC2)C(=O)N(S(=O)(=O)c2ccc(OC)cc2OC)c2ccc(C#N)cc21.O=C(O)C(F)(F)F.O=C(O)C(F)(F)F (racemic) [Example 85, N-[5-Cyano-1-[(2,4-dimethoxyphenyl)sulphonyl]-3-(2-ethoxypyridin-3-yl)-2-oxo-2,3-dihydro-1H-indol-3-yl]-4,4′-bipiperidine-1-carboxamide bis(trifluoroacetate)] | ++ (>25-50) | +++ (>100) | < 0.01 | 60 to 120
CCOc1ncccc1C1(NC(=O)N2CCC(N3CCN(CC)CC3)CC2)C(=O)N(S(=O)(=O)c2ccccc2)c2ccc(C#N)cc21 (single isomer, unassigned) [Example 40B, (−)-N-[5-Cyano-3-(2-ethoxypyridin-3-yl)-2-oxo-1-(phenylsulphonyl)-2,3-dihydro-1H-indol-3-yl]-4-(4-ethylpiperazin-1-yl)piperidin-1-carboxamide] | +++ (>50) | + (15-50) | < 0.01 | 60 to 120
CCOc1ncccc1C1(NC(=O)N2CCN(C3CCNCC3)CC2)C(=O)N(S(=O)(=O)c2ccc(OC)cc2OC)c2ccc(C#N)cc21.O=C(O)C(F)(F)F.O=C(O)C(F)(F)F (racemic) [Example 25, N-[5-Cyano-1-[(2,4-dimethoxyphenyl)sulphonyl]-3-(2-ethoxypyridin-3-yl)-2-oxo-2,3-dihydro-1H-indol-3-yl]-4-piperidin-4-ylpiperazine-1-carboxamide bis(trifluoroacetate)] | ++ (>25-50) | +++ (>100) | < 0.01 | < 60
CCOc1ncccc1C1(NC(=O)N2CCC(N3CCN(CC)CC3)CC2)C(=O)N(S(=O)(=O)c2ccccc2)c2ccc(C#N)cc21 (racemic) [Example 40, N-[5-Cyano-3-(2-ethoxypyridin-3-yl)-2-oxo-1-(phenylsulphonyl)-2,3-dihydro-1H-indol-3-yl]-4-(4-ethylpiperazin-1-yl)piperidine-1-carboxamide] | +++ (>50) | ++ (>50-100) | < 0.01 | 60 to 120
CCOc1ncccc1C1(NC(=O)N2CCC(N3CCN(CC)CC3)CC2)C(=O)N(S(=O)(=O)c2ccc(OC)cc2OC)c2ccc(C#N)cc21 (racemic) [Example 37, N-[5-Cyano-1-[(2,4-dimethoxyphenyl)sulphonyl]-3-(2-ethoxypyridin-3-yl)-2-oxo-2,3-dihydro-1H-indol-3-yl]-4-(4-ethylpiperazin-1-yl)piperidine-1-carboxamide] | +++ (>50) | +++ (>100) | < 0.01 | 60 to 120
